Source: patent publication US7473790B2 (Pfizer Inc., priority 2003, dated 2009)

Target: T1, HCV polymerase (Hepatitis C virus genotype 1b, UniProt P26663)
T1 construct: 2.5 pmoles (0.15 μg) HCV polymerase protein in a final volume of 75 μL
Test: HCV polymerase primer/template-directed transcription assay (32P-GTP incorporation, filter binding)
Type: biochemical
Conditions: for IC50: recombinant HCV polymerase, 30 minutes at 30° C., concentration giving 50% inhibition of polymerase-directed transcription, read-out: IC50
Summary of the method: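 Recombinant genotype 1b polymerase (30 nM) extended biotin-dG12 primer on poly(rC)300 template with 1 μM GTP plus α-32P-GTP, pH 7.2, 10 mM MgCl2, 30 min at 30° C, 1% DMSO final. Products captured on DE filters and counted. IC50 fitted from triplicate cpm, with a tight-binding correction applied below 200 nM.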

T1 sequence (P26663 2420-3010): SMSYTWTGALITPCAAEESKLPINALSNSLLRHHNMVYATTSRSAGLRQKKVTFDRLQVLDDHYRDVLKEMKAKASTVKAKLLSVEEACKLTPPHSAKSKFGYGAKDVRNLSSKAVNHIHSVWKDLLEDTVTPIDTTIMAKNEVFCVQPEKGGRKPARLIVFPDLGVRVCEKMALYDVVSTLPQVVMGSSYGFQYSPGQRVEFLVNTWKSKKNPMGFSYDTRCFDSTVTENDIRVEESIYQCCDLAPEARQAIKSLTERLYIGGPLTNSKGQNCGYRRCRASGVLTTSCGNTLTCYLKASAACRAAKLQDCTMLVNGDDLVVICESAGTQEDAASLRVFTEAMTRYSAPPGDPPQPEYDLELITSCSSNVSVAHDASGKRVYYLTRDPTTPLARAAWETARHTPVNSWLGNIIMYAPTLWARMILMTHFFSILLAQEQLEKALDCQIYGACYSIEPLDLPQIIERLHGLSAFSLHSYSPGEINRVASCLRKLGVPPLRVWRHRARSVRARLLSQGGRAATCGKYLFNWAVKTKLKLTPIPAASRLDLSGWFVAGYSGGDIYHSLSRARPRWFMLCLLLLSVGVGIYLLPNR

Q: `CCc1cc(CCC2(C3CCCC3)CC(=O)CC(=O)O2)ccc1OC` (stereo not shown) [A(96), 6-Cyclopentyl-6-[2-(3-ethyl-4-methoxy-phenyl)-ethyl]-dihydro-pyran-2,4-dione] was tested. Which IC50 did it give?
A: Its IC50 is 3200 nM.

Q: With `COc1ccc(CC2=C(O)CC(CCc3ccc(OC)c(Cl)c3)(C3CCCC3)OC2=O)cc1` (stereo not shown) [B(17), 6-[2-(3-Chloro-4-methoxy-phenyl)-ethyl]-6-cyclopentyl-4-hydroxy-3-(4-methoxy-benzyl)-5,6-dihydro-pyran-2-one] as the compound, how does the IC50 read?
A: The IC50 was 1100 nM.

Q: With `COc1cc(OC)c(CCC2(C3CCCC3)CC(O)=C(Cc3nc(-c4ccccn4)no3)C(=O)O2)cc1Cl` (stereo not shown) [B(73), 6-[2-(5-Chloro-2,4-dimethoxyphenyl)ethyl]-6-cyclopentyl-4-hydroxy-3-[(3-pyridin-2-yl-1,2,4-oxadiazol-5-yl)methyl]-5,6-dihydro-2H-pyran-2-one] as the compound, how does the IC50 read?
A: The IC50 was 62 nM.

Q: With `CCc1nc(CC2=C(O)CC(CCc3ccc(O)c(CC)c3)(C3CCCC3)OC2=O)c(C)[nH]1` (stereo not shown) [B(111), 6-Cyclopentyl-6-[2-(3-ethyl-4-hydroxy-phenyl)-ethyl]-3-(2-ethyl-5-methyl-1H-imidazol-4-ylmethyl)-4-hydroxy-5,6-dihydro-pyran-2-one] as the compound, how does the IC50 read?
A: Its IC50 is 321 nM.

Q: For `COc1ccc(CCC2(C3CCCC3)CC(O)=C(Sc3cccc(Cl)c3Cl)C(=O)O2)cc1Cl` (stereo not shown) [C(108), 6-[2-(3-chloro-4-methoxyphenyl)ethyl]-6-cyclopentyl-3-[(2,3-dichlorophenyl)thio]-4-hydroxy-5,6-dihydro-2H-pyran-2-one], which IC50 is on record?
A: Its IC50 is 210 nM.

Q: Which IC50 does the source give for `O=C1CC(=O)OC(CCCNC(=O)CCc2ccco2)(C2CCCC2)C1` (stereo not shown) [H(3), N-[3-(2-Cyclopentyl-4,6-dioxo-tetrahydro-pyran-2-yl)-propyl]-3-furan-2-yl-propionamide] here?
A: Its IC50 is 1200 nM.

Q: For `COc1cc(OC)c(CCC2(C3CCCC3)CC(O)=C(Cc3nc4nc(C)cc(C)n4n3)C(=O)O2)cc1Cl` (stereo not shown) [B(52), 6-[2-(5-chloro-2,4-dimethoxyphenyl)ethyl]-6-cyclopentyl-3-[(5,7-dimethyl[1,2,4]triazolo[1,5-a]pyrimidin-2-yl)methyl]dihydro-2H-pyran-2,4(3H)-dione], which IC50 is on record?
A: Its IC50 is 170 nM.

Q: For `COC(=O)C(C)(C)c1ccc(CCC2(C3CCCC3)CC(=O)CC(=O)O2)cc1` (stereo not shown) [A(33), 2-{4-[2-(2-Cyclopentyl-4,6-dioxo-tetrahydro-pyran-2-yl)-ethyl]-phenyl}-2-methyl-propionic acid methyl ester], which IC50 is on record?
A: The IC50 was 5000 nM.

Q: `CCOc1ccc2nc(SCC3(C4CCCC4)CC(=O)CC(=O)O3)sc2c1` (stereo not shown) [I(3), 6-cyclopentyl-6-{[(6-ethoxy-1,3-benzothiazol-2-yl)thio]methyl}dihydro-2H-pyran-2,4(3H)-dione] was tested. Which inhibition at 50 µM (@ 50 uM compound, given where IC50 was impractical to calculate, read-out: percent inhibition) did it give?
A: The inhibition at 50 µM was -2%.

Q: For `CCc1cc(CCC2(C3CCCC3)CC(O)=C(Cc3nc4ncc(Cl)cn4n3)C(=O)O2)c(OC)cc1O` (racemic) [A(210), 3-[(6-chloro[1,2,4]triazolo[1,5-a]pyrimidin-2-yl)methyl]-6-cyclopentyl-6-[2-(5-ethyl-4-hydroxy-2-methoxyphenyl)ethyl]-4-hydroxy-5,6-dihydro-2H-pyran-2-one], which IC50 is on record?
A: Its IC50 is 2 nM.

Q: With `COc1ccc(CCC2(C3CCCC3)CC(O)=C(Cc3cc(=O)n4c(C)csc4n3)C(=O)O2)cc1` (stereo not shown) [B(61), 7-({6-Cyclopentyl-4-hydroxy-6-[2-(4-methoxyphenyl)ethyl]-2-oxo-5,6-dihydro-2H-pyran-3-yl}methyl)-3-methyl-5H-[1,3]thiazolo[3,2-a]pyrimidin-5-one] as the compound, how does the IC50 read?
A: Its IC50 is 120 nM.

Q: With `CCc1cc(CCC2(C3CCCC3)CC(O)=C(Cc3nc4ncc(C)cn4n3)C(=O)O2)c(OC)cc1O` (racemic) [A(212), 3-[(6-methyl[1,2,4]triazolo[1,5-a]pyrimidin-2-yl)methyl]-6-cyclopentyl-6-[2-(5-ethyl-4-hydroxy-2-methoxyphenyl)ethyl]-4-hydroxy-5,6-dihydro-2H-pyran-2-one] as the compound, how does the IC50 read?
A: The IC50 was 4 nM.

Q: `COc1ccc(CCC2(C3CCCC3)CC(=O)C(Cc3ccccc3)C(=O)O2)cc1` (stereo not shown) [B(77), 3-benzyl-6-cyclopentyl-6-[2-(4-methoxyphenyl)ethyl]dihydro-2H-pyran-2,4(3H)-dione] was tested. Which IC50 did it give?
A: The IC50 was 5500 nM.

Q: `Cc1cc(C)n2nc(CC3=C(O)CC(CCc4ccc(C(C)C)c(F)c4)(C4CCCC4)OC3=O)nc2n1` (stereo not shown) [B(45), 6-cyclopentyl-3-[(5,7-dimethyl[1,2,4]triazolo[1,5-a]pyrimidin-2-yl)methyl]-6-[2-(3-fluoro-4-isopropylphenyl)ethyl]-4-hydroxy-5,6-dihydro-2H-pyran-2-one] was tested. Which IC50 did it give?
A: Its IC50 is 53 nM.

Q: For `COC(=O)c1nnc(SC2=C(O)CC(CCc3ccc(OC)c(Cl)c3)(C3CCCC3)OC2=O)n1C` (stereo not shown) [C(100), methyl 5-({6-[2-(3-chloro-4-methoxyphenyl)ethyl]-6-cyclopentyl-4-hydroxy-2-oxo-5,6-dihydro-2H-pyran-3-yl}thio)-4-methyl-4H-1,2,4-triazole-3-carboxylate], which IC50 is on record?
A: The IC50 was 32 nM.

Q: `CNS(=O)(=O)c1ccc(CCC2(C3CCCC3)CC(=O)CC(=O)O2)cc1F` (stereo not shown) [A(85), 4-[2-(2-Cyclopentyl-4,6-dioxo-tetrahydro-pyran-2-yl)-ethyl]-2-fluoro-methyl-benzenesulfonamide] was tested. Which IC50 did it give?
A: Its IC50 is 12400 nM.

Q: For `O=C1CC(=O)OC(CCNC(=O)c2ccco2)(C2CCCC2)C1` (stereo not shown) [H(2), Furan-2-carboxylic acid [2-(2-cyclopentyl-4,6-dioxo-tetrahydro-pyran-2-yl)-ethyl]-amide], which IC50 is on record?
A: The IC50 was 51000 nM.

Q: How did the IC50 turn out when `Cc1cc(C)n2nc(CC3=C(O)CC(CCc4ccc(O)c(F)c4)(C4CCCC4)OC3=O)nc2n1` (stereo not shown) [B(105), 6-Cyclopentyl-3-(5,7-dimethyl-[1,2,4]triazolo[1,5-a]pyrimidin-2-ylmethyl)-6-[2-(3-fluoro-4-hydroxy-phenyl)-ethyl]-4-hydroxy-5,6-dihydro-pyran-2-one] was run?
A: Its IC50 is 46 nM.

Q: Which IC50 does the source give for `COC(=O)c1nnc(SC2=C(O)CC(CCc3cc(Cl)c(OC)cc3OC)(C3CCCC3)OC2=O)n1C` (stereo not shown) [C(89), methyl 5-({6-[2-(5-chloro-2,4-dimethoxyphenyl)ethyl]-6-cyclopentyl-4-hydroxy-2-oxo-5,6-dihydro-2H-pyran-3-yl}thio)-4-methyl-4H-1,2,4-triazole-3-carboxylate] here?
A: The IC50 was 20 nM.

Q: For `CCCc1cc(CCC2(C3CCCC3)CC(O)=C(Cc3nc4nc(C)cc(C)n4n3)C(=O)O2)ccc1O` (stereo not shown) [A(136), 6-cyclopentyl-3-[(5,7-dimethyl[1,2,4]triazolo[1,5-a]pyrimidin-2-yl)methyl]-4-hydroxy-6-[2-(4-hydroxy-3-propylphenyl)ethyl]-5,6-dihydro-2H-pyran-2-one], which IC50 is on record?
A: Its IC50 is 2 nM.

Q: With `CCc1cc(CCC2(C3CCCC3)CC(=O)CC(=O)O2)ccn1` (stereo not shown) [A(163), 6-Cyclopentyl-6-[2-(2-ethyl-pyridin-4-yl)-ethyl]-dihydro-pyran-2,4-dione] as the compound, how does the IC50 read?
A: Its IC50 is 1900 nM.

Q: For `CC(C)n1c(SC2=C(O)CC(CCC3CCCC3)(C3CCCC3)OC2=O)nc2cc(Cl)ccc21` (stereo not shown) [C(29), 3-(5-Chloro-1-isopropyl-1H-benzoimidazol-2-ylsulfanyl)-6-cyclopentyl-6-(2-cyclopentyl-ethyl)-4-hydroxy-5,6-dihydro-pyran-2-one], which IC50 is on record?
A: Its IC50 is 9300 nM.

Q: With `O=C1CC(=O)OC(CCc2ccc(N3CCCS3(=O)=O)c(F)c2)(C2CCCC2)C1` (stereo not shown) [A(134), 6-cyclopentyl-6-{2-[4-(1,1-dioxidoisothiazolidin-2-yl)-3-fluorophenyl]ethyl}dihydro-2H-pyran-2,4(3H)-dione] as the compound, how does the IC50 read?
A: The IC50 was 38000 nM.

Q: How did the IC50 turn out when `CCc1cc(CCC2(C3CCCC3)CC(O)=C(Cc3nc4nc(C)cc(C)n4n3)C(=O)O2)cc(F)c1O` (stereo not shown) [A(123), 6-Cyclopentyl-3-(5,7-dimethyl-[1,2,4]triazolo[1,5-a]pyrimidin-2-ylmethyl)-6-[2-(3-ethyl-5-fluoro-4-hydroxy-phenyl)-ethyl]-4-hydroxy-5,6-dihydro-pyran-2-one] was run?
A: The IC50 was 12 nM.

Q: For `Cc1cc(CCC2(C3CCCC3)CC(=O)CC(=O)O2)ccc1OC(C)C` (stereo not shown) [A(04), 6-Cyclopentyl-6-[2-(4-isopropoxy-3-methyl-phenyl)-ethyl]-dihydro-pyran-2,4-dione], which IC50 is on record?
A: Its IC50 is 5600 nM.

Q: How did the IC50 turn out when `COc1ccc(CCC2(C3CCCC3)CC(O)=C(Sc3nnc(-c4cccnc4)[nH]3)C(=O)O2)cc1Cl` (stereo not shown) [C(92), 6-[2-(3-chloro-4-methoxyphenyl)ethyl]-6-cyclopentyl-4-hydroxy-3-[(5-pyridin-3-yl-4H-1,2,4-triazol-3-yl)thio]-5,6-dihydro-2H-pyran-2-one] was run?
A: Its IC50 is 82 nM.

Q: How did the IC50 turn out when `O=C1OC(CCc2ccc(OCc3ccccc3)cc2)(C2CCCC2)CC(O)=C1Cc1cc(=O)[nH]c(C2CC2)n1` (stereo not shown) [B(67), 6-[(6-{2-[4-(Benzyloxy)phenyl]ethyl}-6-cyclopentyl-4-hydroxy-2-oxo-5,6-dihydro-2H-pyran-3-yl)methyl]-2-cyclopropylpyrimidin-4(3H)-one] was run?
A: Its IC50 is 3200 nM.

Q: Which IC50 does the source give for `N#CCC(=O)c1ccc(C#CC2(C3CCCC3)CC(=O)CC(=O)O2)s1` (stereo not shown) [E(2), 3-[5-(2-Cyclopentyl-4,6-dioxo-tetrahydro-pyran-2-ylethynyl)-thiophen-2-yl]-3-oxo-propionitrile] here?
A: Its IC50 is 8200 nM.

Q: `COC(=O)c1nnc(SC2=C(O)CC(CCc3ccc(OC(C)C)c(F)c3)(C3CCCC3)OC2=O)n1C` (stereo not shown) [C(10), 5-{6-Cyclopentyl-6-[2-(3-fluoro-4-isopropoxy-phenyl)-ethyl]-4-hydroxy-2-oxo-5,6-dihydro-2H-pyran-3-ylsulfanyl}-4-methyl-4H-[1,2,4]triazole-3-carboxylic acid methyl ester] was tested. Which IC50 did it give?
A: The IC50 was 16 nM.

Q: Which IC50 does the source give for `O=C1OC(CCC2=CCCCC2)(C2CCCC2)CC(O)=C1Sc1nnc(-c2ccncc2)[nH]1` (stereo not shown) [C(04), 6-(2-Cyclohex-1-enyl-ethyl)-6-cyclopentyl-4-hydroxy-3-(5-pyridin-4-yl-4H-[1,2,4]triazol-3-ylsulfanyl)-5,6-dihydro-pyran-2-one] here?
A: The IC50 was 1800 nM.

Q: How did the IC50 turn out when `Cc1cc(C)n2nc(CC3=C(O)CC(CCc4ccc(Cl)c(Cl)c4)(C4CCCC4)OC3=O)nc2n1` (stereo not shown) [B(38), 6-Cyclopentyl-6-[2-(3,4-dichloro-phenyl)-ethyl]-3-(5,7-dimethyl-[1,2,4]triazolo[1,5-a]pyrimidin-2-ylmethyl)-4-hydroxy-5,6-dihydro-pyran-2-one] was run?
A: The IC50 was 21 nM.
